Several values for one entry are separate records, joined by “and”; a condition that tells them apart may be missing. Equal values may be shown once. Inconclusive results and toxic doses are left out. No stated cut-off is given here; in the data, active means T/C of 150% or more; inactive means T/C below 125%.
Tested on: L1210 leukemia ip in BDF1 mice, survival T/C
Assay: NCI In Vivo Anticancer Drug Screen. Data for tumor model L1210 Leukemia (intraperitoneal) in B6D2F1 (BDF1) mice
Conditions: endpoint: mean survival time, higher = longer survival
Outline: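 In this screen, tumor-bearing mice given compound are compared to those given vehicle, and their survival values are reported as a treated-to-control quotient.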

[1] = dose: 75.0 mg/kg/injection, schedule: Q01DX001 (ip), vehicle: other
[2] = dose: 150.0 mg/kg/injection, schedule: Q01DX001 (ip), vehicle: other
[3] = dose: 300.0 mg/kg/injection, schedule: Q01DX001 (ip), vehicle: other
[4] = dose: 50.0 mg/kg/injection, schedule: Q01DX009 (ip), vehicle: saline with Tween-80
[5] = dose: 100.0 mg/kg/injection, schedule: Q04DX003 (ip), vehicle: Klucel (hydroxypropylcellulose) (HPC)
[6] = dose: 200.0 mg/kg/injection, schedule: Q04DX003 (ip), vehicle: Klucel (hydroxypropylcellulose) (HPC)
[7] = dose: 400.0 mg/kg/injection, schedule: Q04DX003 (ip), vehicle: Klucel (hydroxypropylcellulose) (HPC)
[8] = dose: 50.0 mg/kg/injection, schedule: Q01DX001 (ip), vehicle: carboxymethylcellulose (CMC)
[9] = dose: 100.0 mg/kg/injection, schedule: Q01DX001 (ip), vehicle: carboxymethylcellulose (CMC)
[10] = dose: 200.0 mg/kg/injection, schedule: Q01DX001 (ip), vehicle: carboxymethylcellulose (CMC)
[11] = dose: 400.0 mg/kg/injection, schedule: Q01DX001 (ip), vehicle: carboxymethylcellulose (CMC)
[12] = dose: 100.0 mg/kg/injection, schedule: Q04DX002 (ip), vehicle: saline with Tween-80
[13] = dose: 200.0 mg/kg/injection, schedule: Q04DX002 (ip), vehicle: saline with Tween-80
[14] = dose: 400.0 mg/kg/injection, schedule: Q04DX002 (ip), vehicle: saline with Tween-80

Measured: T/C

NC(=O)SCC(=O)NNc1ccccc1
inactive: [1] 90 % of control | [2] 98 % of control | [3] 100 % of control

CCOC(=O)c1c(-c2ccc([N+](=O)[O-])cc2)cn(-c2ccc(OC)cc2)c1C
inactive: dose: 100.0 mg/kg/injection, schedule: Q04DX002 (ip), vehicle: Klucel (hydroxypropylcellulose) (HPC) 91 % of control | dose: 200.0 mg/kg/injection, schedule: Q04DX002 (ip), vehicle: Klucel (hydroxypropylcellulose) (HPC) 87 % of control | dose: 400.0 mg/kg/injection, schedule: Q04DX002 (ip), vehicle: Klucel (hydroxypropylcellulose) (HPC) 94 % of control

CC1C(=O)OC2CC[N+]3(C(C)C)CC=C(COC(=O)C(C)(O)C1(C)O)C23 (stereo not drawn)
inactive: dose: 50.0 mg/kg/injection, schedule: Q01DX009 (ip), vehicle: saline 100 % of control | dose: 100.0 mg/kg/injection, schedule: Q01DX009 (ip), vehicle: saline 106 % of control | dose: 200.0 mg/kg/injection, schedule: Q01DX009 (ip), vehicle: saline 106 % of control

C/C(=C\c1ccc2c(c1)OCO2)[N+](=O)[O-]
inactive: dose: 25.0 mg/kg/injection, schedule: Q01DX009 (ip), vehicle: Klucel (hydroxypropylcellulose) (HPC) 97 % of control | dose: 50.0 mg/kg/injection, schedule: Q01DX009 (ip), vehicle: Klucel (hydroxypropylcellulose) (HPC) 89 % of control | [4] 108 % of control | dose: 50.0 mg/kg/injection, schedule: Q04DX003 (ip), vehicle: Klucel (hydroxypropylcellulose) (HPC) 94 % of control | dose: 100.0 mg/kg/injection, schedule: Q01DX009 (ip), vehicle: Klucel (hydroxypropylcellulose) (HPC) 98 % of control and 87 % of control | dose: 100.0 mg/kg/injection, schedule: Q01DX009 (ip), vehicle: saline with Tween-80 87 % of control | [5] 103 % of control | [6] 100 % of control | [7] 97 % of control

CCN(CC)CCNc1nc2ccc(C(=O)O)cc2s1
inactive: dose: 75.0 mg/kg/injection, schedule: Q01DX001 (ip), vehicle: saline 100 % of control | dose: 150.0 mg/kg/injection, schedule: Q01DX001 (ip), vehicle: saline 98 % of control | dose: 300.0 mg/kg/injection, schedule: Q01DX001 (ip), vehicle: saline 94 % of control

COc1cc(C(=O)NOCc2cc3c(cc2Cl)OCO3)cc(OC)c1OC
inactive: dose: 200.0 mg/kg/injection, schedule: Q04DX003 (ip), vehicle: saline sonified 92 % of control | dose: 400.0 mg/kg/injection, schedule: Q04DX003 (ip), vehicle: saline sonified 90 % of control

CN(CC#N)c1ncnc(Cl)c1[N+](=O)[O-]
inactive: [8] 95 % of control | [9] 98 % of control | [10] 88 % of control | [11] 98 % of control

O=C(O)c1ccccc1N=Cc1ccccc1Cl
inactive: [12] 101 % of control | [13] 108 % of control | [14] 93 % of control

COC1CCC(NC(=O)NCCCl)CC1 (stereo not drawn)
inactive: dose: 100.0 mg/kg/injection, schedule: Q01DX001 (ip), vehicle: Klucel (hydroxypropylcellulose) (HPC) 95 % of control | [5] 103 % of control | dose: 200.0 mg/kg/injection, schedule: Q01DX001 (ip), vehicle: Klucel (hydroxypropylcellulose) (HPC) 102 % of control | [6] 97 % of control | dose: 400.0 mg/kg/injection, schedule: Q01DX001 (ip), vehicle: Klucel (hydroxypropylcellulose) (HPC) 95 % of control | [7] 97 % of control

O=C(Nc1ccccc1)OC1CCCC1
inactive: [5] 101 % of control | [6] 101 % of control | [7] 96 % of control

CC(=O)OCC(=O)[C@@]1(O)CC[C@H]2[C@@H]3CCC4=CC(=O)CC[C@]4(C)C3=CC[C@@]21C
inactive: dose: 12.5 mg/kg/injection, schedule: Q04DX003 (ip), vehicle: saline with Tween-80 95 % of control | dose: 25.0 mg/kg/injection, schedule: Q04DX003 (ip), vehicle: saline with Tween-80 93 % of control | dose: 50.0 mg/kg/injection, schedule: Q04DX003 (ip), vehicle: saline with Tween-80 90 % of control

O=C(NCCCl)NC1CCCC(O)C1 (stereo not drawn)
inactive: dose: 100.0 mg/kg/injection, schedule: Q01DX001 (ip), vehicle: saline 101 % of control | dose: 200.0 mg/kg/injection, schedule: Q01DX001 (ip), vehicle: saline 101 % of control | dose: 400.0 mg/kg/injection, schedule: Q01DX001 (ip), vehicle: saline 93 % of control

CC1CCC2(OC1)OC1CC3C4CCC5CC(O)C(O)CC5(C)C4CCC3(C)C1C2C (stereo not drawn)
inactive: dose: 50.0 mg/kg/injection, schedule: Q01DX009 (ip), vehicle: acetone 92 % of control | dose: 100.0 mg/kg/injection, schedule: Q01DX009 (ip), vehicle: acetone 92 % of control | dose: 100.0 mg/kg/injection, schedule: Q04DX003 (ip), vehicle: saline 92 % of control | dose: 200.0 mg/kg/injection, schedule: Q01DX009 (ip), vehicle: acetone 100 % of control | dose: 200.0 mg/kg/injection, schedule: Q04DX003 (ip), vehicle: saline 97 % of control | dose: 400.0 mg/kg/injection, schedule: Q01DX009 (ip), vehicle: acetone 94 % of control | dose: 400.0 mg/kg/injection, schedule: Q04DX003 (ip), vehicle: saline 94 % of control

CC(=O)N(N=O)c1ccc(C)cc1
inactive: dose: 5.0 mg/kg/injection, schedule: Q01DX001 (ip), vehicle: saline 101 % of control | dose: 10.0 mg/kg/injection, schedule: Q01DX001 (ip), vehicle: saline 92 % of control | dose: 20.0 mg/kg/injection, schedule: Q01DX001 (ip), vehicle: saline 92 % of control | dose: 40.0 mg/kg/injection, schedule: Q01DX001 (ip), vehicle: saline 106 % of control

O=Cc1ccc(N(c2ccc(C=O)cc2)c2ccc(C=O)cc2)cc1
inactive: dose: 100.0 mg/kg/injection, schedule: Q04DX003 (ip), vehicle: saline with Tween-80 100 % of control | dose: 200.0 mg/kg/injection, schedule: Q04DX003 (ip), vehicle: saline with Tween-80 89 % of control | dose: 400.0 mg/kg/injection, schedule: Q04DX003 (ip), vehicle: saline with Tween-80 92 % of control

O=[N+]([O-])c1cc(S(=O)(=O)c2ccc(O)c([N+](=O)[O-])c2)ccc1O
inactive: dose: 25.0 mg/kg/injection, schedule: Q04DX002 (ip), vehicle: saline 98 % of control | dose: 50.0 mg/kg/injection, schedule: Q04DX002 (ip), vehicle: saline 98 % of control | dose: 100.0 mg/kg/injection, schedule: Q04DX002 (ip), vehicle: saline 98 % of control and 104 % of control

CCCC(=O)Nc1cc([N+](=O)[O-])ccc1O
inactive: [4] 97 % of control and 106 % of control | [12] 93 % of control and 95 % of control | [13] 95 % of control and 97 % of control | [14] 95 % of control and 92 % of control

Cc1cccc(N2CCNCC2)c1
inactive: dose: 6.25 mg/kg/injection, schedule: Q04DX003 (ip), vehicle: saline 93 % of control | dose: 12.5 mg/kg/injection, schedule: Q04DX003 (ip), vehicle: saline 96 % of control | dose: 25.0 mg/kg/injection, schedule: Q04DX002 (ip), vehicle: saline with Tween-80 101 % of control | dose: 25.0 mg/kg/injection, schedule: Q04DX003 (ip), vehicle: saline 102 % of control | dose: 50.0 mg/kg/injection, schedule: Q04DX002 (ip), vehicle: saline with Tween-80 92 % of control

O=C(CCN1CCCCC1)C(O)(c1ccccc1)c1ccccc1
inactive: [1] 103 % of control | [2] 97 % of control | [3] 104 % of control

O=S(=O)(c1ccc(I)cc1)c1ccc(I)cc1
inactive: [8] 104 % of control | [9] 95 % of control | [10] 88 % of control | [11] 95 % of control

CCN1CC2c3cc(OC)c(OC)cc3CC(c3ccccc3)C2C1 (stereo not drawn)
inactive: dose: 12.5 mg/kg/injection, schedule: Q01DX009 (ip), vehicle: saline with Tween-80 98 % of control | dose: 25.0 mg/kg/injection, schedule: Q01DX009 (ip), vehicle: saline with Tween-80 95 % of control

C(CCCCCC1CCCC2CCCCC12)CCCCC1CCCC2CCCCC12 (stereo not drawn)
inactive: dose: 100.0 mg/kg/injection, schedule: Q01DX001 (ip), vehicle: saline with Tween-80 98 % of control | dose: 200.0 mg/kg/injection, schedule: Q01DX001 (ip), vehicle: saline with Tween-80 98 % of control | dose: 400.0 mg/kg/injection, schedule: Q01DX001 (ip), vehicle: saline with Tween-80 98 % of control

— PubChem BioAssay AID248 (DTP/NCI, 2004)
